Experimental findings from patent US10189816B2, “Substituted pyridines as inhibitors of human immunodeficiency virus replication” (priority 2015, dated 2019) are described below.

This assay relates to NL-RLuc virus. Description: Inhibition of HIV replication (NL-RLuc reporter virus in MT-2 cells, luciferase readout). The assay is classed as cell-based. The note with it: Human immunodeficiency virus 1, MT2, 120 h. The text has this: Inhibition of HIV replication: A recombinant NL-RLuc proviral clone was constructed in which a section of the nef gene from NL4-3 was replaced with the Renilla Luciferase gene. This virus is fully infectious and can undergo multiple cycles of replication in cell culture. In addition, the luciferous reporter provides a simple and easy method for quantitating the extent of virus growth and consequently, the antiviral activity of test compounds. The plasmid pNLRLuc contains the proviral NL-Rluc DNA cloned into pUC18 at the PvuII site. The NL-RLuc virus was prepared by transfection of 293T cells with the plasmid pNLRLuc. Transfections were performed using the LipofectAMINE PLUS kit from Invitrogen (Carlsbad, Calif.) according to the manufacturer and the virus generated was titered in MT-2 cells. For susceptibility analyses, the titrated virus was used to infect MT-2 cells in the presence of compound, and after 5 days of incubation, cells were processed and quantitated for virus growth by the amount of expressed luciferase. Assay media was RPMI 1640 supplemented with 10% heat inactivated fetal bovine serum (FBS), 100 units/ml penicillin G/100 units/ml streptomycin, 10 mM HEPES buffer pH 7.55 and 2 mM L-glutamine. The results from at least 2 experiments were used to calculate the EC50 values. Luciferase was quantitated using the Dual Luciferase kit from Promega (Madison, Wis.). Susceptibility of viruses to compounds was determined by incubation in the presence of serial dilutions of the compound. The 50% effective concentration (EC50) was calculated by using the exponential form of the median effect equation where (Fa)=1/[1+(ED50/drug conc.)^m] (Johnson V A, Byington R T. Infectivity Assay. In Techniques in HIV Research. ed. Aldovini A, Walker B D. 71-76. New York: Stockton Press.1990). Activity equal to A refers to a compound having an EC50≤100 nM, while B and C denote compounds having an EC50 between 100 nM and 1 uM (B) or >1 uM (C).

Read-outs that look alike come from different tables or passages of the source.

`Cc1nc(C)c([C@H](OC(C)(C)C)C(=O)O)c(N2CCC(C)(C)CC2)c1-c1ccc2c(c1)CCN(Cc1ccc(Cl)c(F)c1)C2` [Compound 22, (S)-2-(tert-butoxy)-2-(5-(2-(4-chloro-3-fluorobenzyl)-1,2,3,4-tetrahydroisoquinolin-6-yl)-4-(4,4-dimethylpiperidin-1-yl)-2,6-dimethylpyridin-3-yl)acetic acid]: under “read-out: Activity”, the EC50 is below 0.1 µM.

As to `Cc1cccc(Cl)c1CN1CCc2cc(-c3c(C)nc(C)c([C@H](OC(C)(C)C)C(=O)O)c3N3CCC(C)(C)CC3)ccc2C1` [Compound 23, (S)-2-(tert-butoxy)-2-(5-(2-(2-chloro-6-methylbenzyl)-1,2,3,4-tetrahydroisoquinolin-6-yl)-4-(4,4-dimethylpiperidin-1-yl)-2,6-dimethylpyridin-3-yl)acetic acid], the EC50 (read-out: Activity) is below 0.1 µM and the EC50 (read-out: EC50 μM) was found to be 0.003 µM. Regarding `Cc1nc(C)c([C@H](OC(C)(C)C)C(=O)O)c(N2CCC(C)(C)CC2)c1-c1ccc2c(c1)CCN(Cc1ccc(F)c(Cl)c1)C2` [Compound 24, (S)-2-(tert-butoxy)-2-(5-(2-(3-chloro-4-fluorobenzyl)-1,2,3,4-tetrahydroisoquinolin-6-yl)-4-(4,4-dimethylpiperidin-1-yl)-2,6-dimethylpyridin-3-yl)acetic acid], under “read-out: Activity”, the EC50 is below 0.1 µM. In the case of `Cc1cc(F)ccc1CN1CCc2cc(-c3c(C)nc(C)c([C@H](OC(C)(C)C)C(=O)O)c3N3CCC(C)(C)CC3)ccc2C1` [Compound 25, (S)-2-(tert-butoxy)-2-(4-(4,4-dimethylpiperidin-1-yl)-5-(2-(4-fluoro-2-methylbenzyl)-1,2,3,4-tetrahydroisoquinolin-6-yl)-2,6-dimethylpyridin-3-yl)acetic acid], the EC50 (read-out: Activity) was below 0.1 µM. For the molecule `Cc1nc(C)c([C@H](OC(C)(C)C)C(=O)O)c(N2CCC(C)(C)CC2)c1-c1ccc2c(c1)CCN(Cc1cc(Cl)cc(Cl)c1)C2` [Compound 26, (S)-2-(tert-butoxy)-2-(5-(2-(3,5-dichlorobenzyl)-1,2,3,4-tetrahydroisoquinolin-6-yl)-4-(4,4-dimethylpiperidin-1-yl)-2,6-dimethylpyridin-3-yl)acetic acid], the EC50 (read-out: Activity) is below 0.1 µM. Take `Cc1nc(C)c([C@H](OC(C)(C)C)C(=O)O)c(N2CCC(C)(C)CC2)c1-c1ccc2c(c1)CCN(Cc1ccc(C(C)(C)C)cc1)C2` [Compound 27, (S)-2-(tert-butoxy)-2-(5-(2-(4-(tert-butyl)benzyl)-1,2,3,4-tetrahydroisoquinolin-6-yl)-4-(4,4-dimethylpiperidin-1-yl)-2,6-dimethylpyridin-3-yl)acetic acid]: the EC50 (read-out: Activity) was below 0.1 µM.

On to `Cc1nc(C)c([C@H](OC(C)(C)C)C(=O)O)c(N2CCC(C)(C)CC2)c1-c1ccc2c(c1)CCN(Cc1cccc(Cl)c1)C2` [Compound 28, (S)-2-(tert-butoxy)-2-(5-(2-(3-chlorobenzyl)-1,2,3,4-tetrahydroisoquinolin-6-yl)-4-(4,4-dimethylpiperidin-1-yl)-2,6-dimethylpyridin-3-yl)acetic acid], for which the EC50 (read-out: Activity) was below 0.1 µM.

Consider `Cc1ccc(C)c(CN2CCc3cc(-c4c(C)nc(C)c([C@H](OC(C)(C)C)C(=O)O)c4N4CCC(C)(C)CC4)ccc3C2)c1` [Compound 29, (S)-2-(tert-butoxy)-2-(5-(2-(2,5-dimethylbenzyl)-1,2,3,4-tetrahydroisoquinolin-6-yl)-4-(4,4-dimethylpiperidin-1-yl)-2,6-dimethylpyridin-3-yl)acetic acid], for which, where the note is “read-out: Activity”, the EC50 is below 0.1 µM.

Turning to `Cc1nc(C)c([C@H](OC(C)(C)C)C(=O)O)c(N2CCC(C)(C)CC2)c1-c1ccc2c(c1)CCN(Cc1c(F)cccc1C(F)(F)F)C2` [Compound 30, (S)-2-(tert-butoxy)-2-(4-(4,4-dimethylpiperidin-1-yl)-5-(2-(2-fluoro-6-(trifluoromethyl)benzyl)-1,2,3,4-tetrahydroisoquinolin-6-yl)-2,6-dimethylpyridin-3-yl)acetic acid], the EC50 (read-out: Activity) is below 0.1 µM.

With `Cc1nc(C)c([C@H](OC(C)(C)C)C(=O)O)c(N2CCC(C)(C)CC2)c1-c1ccc2c(c1)CCN(Cc1cc(F)cc(F)c1)C2` [Compound 31, (S)-2-(tert-butoxy)-2-(5-(2-(3,5-difluorobenzyl)-1,2,3,4-tetrahydroisoquinolin-6-yl)-4-(4,4-dimethylpiperidin-1-yl)-2,6-dimethylpyridin-3-yl)acetic acid], the EC50 reads like this: (read-out: Activity) below 0.1 µM; (read-out: EC50 μM) 0.011 µM. As to `Cc1nc(C)c([C@H](OC(C)(C)C)C(=O)O)c(N2CCC(C)(C)CC2)c1-c1ccc2c(c1)CCN(Cc1cccc(C(F)(F)F)c1F)C2` [Compound 32, (S)-2-(tert-butoxy)-2-(4-(4,4-dimethylpiperidin-1-yl)-5-(2-(2-fluoro-3-(trifluoromethyl)benzyl)-1,2,3,4-tetrahydroisoquinolin-6-yl)-2,6-dimethylpyridin-3-yl)acetic acid], where the note is “read-out: Activity”, the EC50 was below 0.1 µM. On to `Cc1cccc(C)c1CN1CCc2cc(-c3c(C)nc(C)c([C@H](OC(C)(C)C)C(=O)O)c3N3CCC(C)(C)CC3)ccc2C1` [Compound 33, (S)-2-(tert-butoxy)-2-(5-(2-(2,6-dimethylbenzyl)-1,2,3,4-tetrahydroisoquinolin-6-yl)-4-(4,4-dimethylpiperidin-1-yl)-2,6-dimethylpyridin-3-yl)acetic acid], for which the EC50 (read-out: Activity) was below 0.1 µM.

`Cc1nc(C)c([C@H](OC(C)(C)C)C(=O)O)c(N2CCC(C)(C)CC2)c1-c1ccc2c(c1)CCN(Cc1cc(F)c(F)c(F)c1)C2` [Compound 34, (S)-2-(tert-butoxy)-2-(4-(4,4-dimethylpiperidin-1-yl)-2,6-dimethyl-5-(2-(3,4,5-trifluorobenzyl)-1,2,3,4-tetrahydroisoquinolin-6-yl)pyridin-3-yl)acetic acid]: the EC50 (read-out: Activity) is below 0.1 µM.

`Cc1nc(C)c([C@H](OC(C)(C)C)C(=O)O)c(N2CCC(C)(C)CC2)c1-c1ccc2c(c1)CCN(Cc1ccc(F)cc1Cl)C2` [Compound 35, (S)-2-(tert-butoxy)-2-(5-(2-(2-chloro-4-fluorobenzyl)-1,2,3,4-tetrahydroisoquinolin-6-yl)-4-(4,4-dimethylpiperidin-1-yl)-2,6-dimethylpyridin-3-yl)acetic acid]: under “read-out: Activity”, the EC50 is below 0.1 µM. Take `Cc1nc(C)c([C@H](OC(C)(C)C)C(=O)O)c(N2CCC(C)(C)CC2)c1-c1ccc2c(c1)CCN(Cc1cccc(C(C)C)c1)C2` [Compound 36, (S)-2-(tert-butoxy)-2-(4-(4,4-dimethylpiperidin-1-yl)-5-(2-(3-isopropylbenzyl)-1,2,3,4-tetrahydroisoquinolin-6-yl)-2,6-dimethylpyridin-3-yl)acetic acid]: the EC50 (read-out: Activity) was below 0.1 µM. For `Cc1nc(C)c([C@H](OC(C)(C)C)C(=O)O)c(N2CCC(C)(C)CC2)c1-c1ccc2c(c1)CCN(Cc1ccc(F)c(F)c1)C2` [Compound 37, (S)-2-(tert-butoxy)-2-(5-(2-(3,4-difluorobenzyl)-1,2,3,4-tetrahydroisoquinolin-6-yl)-4-(4,4-dimethylpiperidin-1-yl)-2,6-dimethylpyridin-3-yl)acetic acid], the EC50 (read-out: Activity) is below 0.1 µM. Turning to `Cc1nc(C)c([C@H](OC(C)(C)C)C(=O)O)c(N2CCC(C)(C)CC2)c1-c1ccc2c(c1)CCN(Cc1cc(F)ccc1F)C2` [Compound 38, (S)-2-(tert-butoxy)-2-(5-(2-(2,5-difluorobenzyl)-1,2,3,4-tetrahydroisoquinolin-6-yl)-4-(4,4-dimethylpiperidin-1-yl)-2,6-dimethylpyridin-3-yl)acetic acid], the EC50 by setting is: (read-out: Activity) below 0.1 µM; (read-out: EC50 μM) 0.006 µM.

For the molecule `Cc1nc(C)c([C@H](OC(C)(C)C)C(=O)O)c(N2CCC(C)(C)CC2)c1-c1ccc2c(c1)CCN(Cc1ccc(Cl)cc1F)C2` [Compound 39, (S)-2-(tert-butoxy)-2-(5-(2-(4-chloro-2-fluorobenzyl)-1,2,3,4-tetrahydroisoquinolin-6-yl)-4-(4,4-dimethylpiperidin-1-yl)-2,6-dimethylpyridin-3-yl)acetic acid], the EC50 (read-out: Activity) was below 0.1 µM.

For the molecule `Cc1nc(C)c([C@H](OC(C)(C)C)C(=O)O)c(N2CCC(C)(C)CC2)c1-c1ccc2c(c1)CCN(Cc1cccc(Cl)c1Cl)C2` [Compound 40, (S)-2-(tert-butoxy)-2-(5-(2-(2,3-dichlorobenzyl)-1,2,3,4-tetrahydroisoquinolin-6-yl)-4-(4,4-dimethylpiperidin-1-yl)-2,6-dimethylpyridin-3-yl)acetic acid], the EC50 (read-out: Activity) was below 0.1 µM. The same measure, in the same setting: in the case of `Cc1nc(C)c([C@H](OC(C)(C)C)C(=O)O)c(N2CCC(C)(C)CC2)c1-c1ccc2c(c1)CCN(Cc1ccc(F)c(F)c1F)C2` [Compound 41, (S)-2-(tert-butoxy)-2-(4-(4,4-dimethylpiperidin-1-yl)-2,6-dimethyl-5-(2-(2,3,4-trifluorobenzyl)-1,2,3,4-tetrahydroisoquinolin-6-yl)pyridin-3-yl)acetic acid] it was below 0.1 µM.
